In PMC7587356, “High-Throughput Screening for Inhibitors of the SARS-CoV-2 Protease Using a FRET-Biosensor” (Molecules, 2020):
Where a name gives a salt, the structure may show the parent alone. Read-outs that look alike come from different tables or passages of the source.

Molecular target: SARS-CoV-2 3CLpro (Severe acute respiratory syndrome coronavirus 2, UniProt P0DTD1)
Assay: biochemical
Type: biochemical
Set-up: Replicate_1 / Replicate_2 / mean / mean (LOPAC_screen_w_protease): unit not given here
Conditions: for inhibition at 5 µM: 4 h
[1] = sheet LOPAC_screen_w_protease, primary screen of LOPAC1280 at 5 µM with protease, mean of the two replicates, read-out: mean
[2] = sheet LOPAC_screen_w_protease, primary screen of LOPAC1280 at 5 µM with protease, replicate 1, read-out: Replicate_1
[3] = sheet LOPAC_screen_w_protease, primary screen of LOPAC1280 at 5 µM with protease, replicate 2, read-out: Replicate_2
[4] = sheet LOPAC_screen_w_protease, LOPAC1280 primary screen with protease, 5 µM compound, mean of the two replicates
[5] = sheet LOPAC_screen_w_protease, LOPAC1280 primary screen with protease, 5 µM compound, replicate 1
[6] = sheet LOPAC_screen_w_protease, LOPAC1280 primary screen with protease, 5 µM compound, replicate 2
[7] = sheet LOPAC_screen_w_protease, primary screen of LOPAC1280 at 5 µM with protease, mean of the two replicates
[8] = sheet LOPAC_screen_w_protease, primary screen of LOPAC1280 at 5 µM with protease, replicate 1
[9] = sheet LOPAC_screen_w_protease, primary screen of LOPAC1280 at 5 µM with protease, replicate 2
[10] = sheet LOPAC_screen_w_protease, LOPAC1280 primary screen with protease, 5 µM compound, mean of the two replicates, read-out: mean
[11] = sheet LOPAC_screen_w_protease, LOPAC1280 primary screen with protease, 5 µM compound, replicate 1, read-out: Replicate_1
[12] = sheet LOPAC_screen_w_protease, LOPAC1280 primary screen with protease, 5 µM compound, replicate 2, read-out: Replicate_2

## Cl.O=S(=O)(c1cccc2c(Cl)cccc12)N1CCCNCC1 [ML-9]
  Replicate_1: 1.4227
  Replicate_2: 4.79
  mean: 3.1064

## CCCOC(=O)c1c(-c2ccccc2)nc(CC)c(C(=O)SCC)c1CCC [MRS 1523]
Sheet LOPAC_screen_w_protease, primary screen with protease, compound at 5 µM, mean of two replicates
  mean: 2.972
Sheet LOPAC_screen_w_protease, primary screen with protease, compound at 5 µM, replicate 1
  Replicate_1: 3.943
Sheet LOPAC_screen_w_protease, primary screen with protease, compound at 5 µM, replicate 2
  Replicate_2: 2.002

## CCCn1c(=O)c2[nH]c(-c3ccc(OCC(=O)Nc4ccc(C#N)cc4)cc3)nc2n(CCC)c1=O [MRS 1754]
[1]
  inhibition at 5 µM: 3.78%
[2]
  inhibition at 5 µM: 1.48%
[3]
  inhibition at 5 µM: 6.08%

## C#CCN1C(C)=C(C(=O)OC)C(c2cccc([N+](=O)[O-])c2)C(C(=O)OCC)=C1C (stereo not drawn) [MRS 1845]
[4]
  mean: 4.379
[5]
  Replicate_1: 3.994
[6]
  Replicate_2: 4.765

## Cc1nc(N=Nc2ccc(C(=O)O)cc2)c(COP(=O)(O)O)c(C=O)c1O [MRS 2159]
LOPAC1280 primary screen with protease, 5 µM compound, mean of the two replicates
  mean (LOPAC_screen_w_protease): 1.803
LOPAC1280 primary screen with protease, 5 µM compound, replicate 1
  Replicate_1 (LOPAC_screen_w_protease): 1.948
LOPAC1280 primary screen with protease, 5 µM compound, replicate 2
  Replicate_2 (LOPAC_screen_w_protease): 1.658

## CNc1ncnc2c1ncn2[C@H]1C[C@H](OP(=O)(O)O)[C@@H](COP(=O)(O)O)O1 [MRS 2179]
[4]
  mean: 4.143
[5]
  Replicate_1: 4.368
[6]
  Replicate_2: 3.917

## CNCCCC12CCC(c3ccccc31)c1ccccc12 [Maprotiline hydrochloride]
read-out: Replicate_1
  inhibition at 5 µM: 4%
read-out: Replicate_2
  inhibition at 5 µM: 5.55%
read-out: mean
  inhibition at 5 µM: 4.77%

## C[N+](C)(C)CC#CCOC(=O)Nc1cccc(Cl)c1.[Cl-] [McN-A-343]
[7]
  mean: 3.792
[8]
  Replicate_1: 2.713
[9]
  Replicate_2: 4.871

## CNC1(C)C2CCC(C2)C1(C)C (stereo not drawn) [Mecamylamine hydrochloride]
[10]
  inhibition at 5 µM: 4.7%
[11]
  inhibition at 5 µM: 5.3%
[12]
  inhibition at 5 µM: 4.09%

## Cc1ccc(Cl)c(Nc2ccccc2C(=O)O)c1Cl [Meclofenamic acid sodium]
read-out: Replicate_1
  inhibition at 5 µM: 1.45%
read-out: Replicate_2
  inhibition at 5 µM: 5.52%
read-out: mean
  inhibition at 5 µM: 3.48%

## COc1ccc2[nH]cc(CCNC(C)=O)c2c1 [Melatonin]
Sheet LOPAC_screen_w_protease, primary screen with protease, mean of two replicates, read-out: mean
  inhibition at 5 µM: 2.28%
Sheet LOPAC_screen_w_protease, primary screen with protease, replicate 1, read-out: Replicate_1
  inhibition at 5 µM: 3.18%
Sheet LOPAC_screen_w_protease, primary screen with protease, replicate 2, read-out: Replicate_2
  inhibition at 5 µM: 1.38%

## CN1C[C@@H](NS(=O)(=O)N(C)C)C[C@@H]2c3cccc4c3c(cn4C)C[C@H]21 [Mesulergine hydrochloride]
[10]
  inhibition at 5 µM: 5.36%
[11]
  inhibition at 5 µM: 4.85%
[12]
  inhibition at 5 µM: 5.86%

## S=C=Nc1cccc(C2(N3CCCCC3)CCCCC2)c1 [Metaphit methanesulfonate]
[10]
  inhibition at 5 µM: 5.96%
[11]
  inhibition at 5 µM: 6.38%
[12]
  inhibition at 5 µM: 5.54%

## CC(C)NCC(O)c1cc(O)cc(O)c1.CC(C)NCC(O)c1cc(O)cc(O)c1.O=S(=O)(O)O (stereo not drawn) [Metaproterenol hemisulfate]
[4]
  mean: 4.319
[5]
  Replicate_1: 2.0521
[6]
  Replicate_2: 6.586

## CN1C[C@H](CNC(=O)OCc2ccccc2)C[C@@H]2c3cccc4c3c(cn4C)C[C@H]21 [Metergoline]
[1]
  inhibition at 5 µM: 4.08%
[2]
  inhibition at 5 µM: 2.56%
[3]
  inhibition at 5 µM: 5.6%

## CSc1ccc2c(c1)C(N1CCN(C)CC1)Cc1ccccc1S2 (stereo not drawn) [Methiothepin mesylate]
[10]
  inhibition at 5 µM: 4.09%
[11]
  inhibition at 5 µM: 3.76%
[12]
  inhibition at 5 µM: 4.42%

## COc1ccccc1CNCCCCCCNCCCCCCCCNCCCCCCNCc1ccccc1OC.Cl.Cl.Cl.Cl [Methoctramine tetrahydrochloride]
[7]
  mean: 4.069
[8]
  Replicate_1: 5.6561
[9]
  Replicate_2: 2.482

## COc1ccc(OC)c(C(O)C(C)N)c1 (stereo not drawn) [Methoxamine hydrochloride]
[1]
  inhibition at 5 µM: 3.32%
[2]
  inhibition at 5 µM: 2.74%
[3]
  inhibition at 5 µM: 3.89%

## COC(=O)c1cc2c(cn1)[nH]c1ccccc12 [Methyl beta-carboline-3-carboxylate]
[7]
  mean: 3.265
[8]
  Replicate_1: 4.868
[9]
  Replicate_2: 1.662
